Reference: ChEMBL document CHEMBL6115000, “Discovery of a first-in-class PROTAC degrader of histone lysine demethylase KDM4” (Eur J Med Chem, 2025)
Calls of active or inactive are those of the source. The rule behind the calls is not given here.

What was measured:
[1] = Induction of cell cycle arrest in human KYSE-150 cells assessed as accumulation of cells at S pahse at 333.3 nM incubated for 24 hrs by flow cytometry (reference value: 13.15 %); format: functional
[2] = target: T1, von Hippel-Lindau disease tumor suppressor/Lysine-specific demethylase 4C (Homo sapiens, UniProt Q9H3R0+P40337); test: PROTAC activity at VHL/KDM4C in human KYSE-150 cells assessed as induction of KDM4C degradation measured after 24 hrs by Western blot analysis; format: cell-based
[3] = target: T2, von Hippel-Lindau disease tumor suppressor/Lysine-specific demethylase 4A (Homo sapiens, UniProt O75164+P40337); test: PROTAC activity at VHL/KDM4A in human KYSE-150 cells assessed as induction of KDM4A degradation at 0.1 uM incubated for 12 hrs by Western blot analysis relative to control; format: cell-based; settings: KYSE-150 cell line
Target sequence in this assay (O75164 2-1064 limits assumed): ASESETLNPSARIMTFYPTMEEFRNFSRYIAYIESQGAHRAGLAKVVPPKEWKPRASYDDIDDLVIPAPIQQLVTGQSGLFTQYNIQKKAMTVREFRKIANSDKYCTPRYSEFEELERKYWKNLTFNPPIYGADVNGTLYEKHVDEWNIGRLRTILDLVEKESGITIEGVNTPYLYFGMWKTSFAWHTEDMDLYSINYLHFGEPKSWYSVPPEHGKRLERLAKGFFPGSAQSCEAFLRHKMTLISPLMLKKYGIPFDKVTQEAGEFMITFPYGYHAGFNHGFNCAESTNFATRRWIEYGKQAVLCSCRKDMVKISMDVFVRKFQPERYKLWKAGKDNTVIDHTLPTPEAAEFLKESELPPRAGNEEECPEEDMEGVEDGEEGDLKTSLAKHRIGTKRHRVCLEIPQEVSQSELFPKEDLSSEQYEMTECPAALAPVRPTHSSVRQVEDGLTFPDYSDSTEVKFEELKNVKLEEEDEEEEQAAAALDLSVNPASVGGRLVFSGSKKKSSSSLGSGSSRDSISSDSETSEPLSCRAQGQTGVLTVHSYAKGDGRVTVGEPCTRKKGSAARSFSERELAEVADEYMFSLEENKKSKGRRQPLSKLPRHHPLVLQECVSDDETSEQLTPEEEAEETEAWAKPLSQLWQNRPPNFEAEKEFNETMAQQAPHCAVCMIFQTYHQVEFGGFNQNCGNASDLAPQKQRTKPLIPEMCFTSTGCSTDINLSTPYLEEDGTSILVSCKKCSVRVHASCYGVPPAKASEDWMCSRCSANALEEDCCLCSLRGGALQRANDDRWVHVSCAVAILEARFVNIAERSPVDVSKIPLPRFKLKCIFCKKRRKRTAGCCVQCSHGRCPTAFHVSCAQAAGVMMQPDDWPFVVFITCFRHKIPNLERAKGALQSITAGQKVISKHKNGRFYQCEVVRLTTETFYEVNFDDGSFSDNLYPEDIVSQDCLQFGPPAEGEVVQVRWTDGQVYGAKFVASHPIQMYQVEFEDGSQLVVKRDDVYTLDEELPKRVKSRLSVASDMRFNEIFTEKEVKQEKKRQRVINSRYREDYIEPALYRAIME
Target sequence in this assay (P40337 whole entry partner): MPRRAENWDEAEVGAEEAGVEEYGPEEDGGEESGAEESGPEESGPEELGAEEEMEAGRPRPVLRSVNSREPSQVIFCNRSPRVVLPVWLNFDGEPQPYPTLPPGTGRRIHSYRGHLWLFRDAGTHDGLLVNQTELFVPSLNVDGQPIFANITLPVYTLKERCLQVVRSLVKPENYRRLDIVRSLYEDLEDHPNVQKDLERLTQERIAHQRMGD

[4] = Induction of cell cycle arrest in human KYSE-150 cells assessed as accumulation of cells at G0/G1 phase at 1000 nM incubated for 24 hrs by flow cytometry (reference value: 65.08 %); format: functional
[5] = target: T2, von Hippel-Lindau disease tumor suppressor/Lysine-specific demethylase 4A; test: PROTAC activity at VHL/KDM4A in human KYSE-150 cells assessed as induction of KDM4A degradation at 50 nM incubated for 24 hrs in presence of MLN4924 by Western blot analysis; format: cell-based; settings: KYSE-150 cell line
Target sequence in this assay (O75164 2-1064 limits assumed): as the sequence (O75164 2-1064 limits assumed) above
Target sequence in this assay (P40337 whole entry partner): as the sequence (P40337 whole entry partner) above

[6] = target: T2, von Hippel-Lindau disease tumor suppressor/Lysine-specific demethylase 4A; test: PROTAC activity at VHL/KDM4A in human KYSE-150 cells assessed as induction of KDM4A degradation measured after 24 hrs by Western blot analysis; format: cell-based
[7] = Induction of cell cycle arrest in human KYSE-150 cells assessed as accumulation of cells at G2/M phase at 37 nM incubated for 24 hrs by flow cytometry (reference value: 21.64 %); format: functional
[8] = target: T2, von Hippel-Lindau disease tumor suppressor/Lysine-specific demethylase 4A; test: PROTAC activity at VHL/KDM4A in human KYSE-150 cells assessed as fold increase in H3K36me3 level at 1000 nM incubated for 24 hrs by Western blot analysis relative to control; format: cell-based; settings: KYSE-150 cell line
Target sequence in this assay (O75164 2-1064 limits assumed): as the sequence (O75164 2-1064 limits assumed) above
Target sequence in this assay (P40337 whole entry partner): as the sequence (P40337 whole entry partner) above

[9] = Induction of apoptosis in human KYSE-150 cells assessed as early apoptotic cells at 333.3 nM incubated for 72 hrs by Annexin V-PE/7-AAD staining based flow cytometry (reference value: 5.27 %); format: functional
[10] = target: T1, von Hippel-Lindau disease tumor suppressor/Lysine-specific demethylase 4C; test: PROTAC activity at VHL/KDM4C in human KYSE-150 cells assessed as induction of KDM4C degradation upto 1000 nM measured after 24 hrs by Western blot analysis relative to control; format: cell-based; settings: KYSE-150 cell line
Target sequence in this assay (P40337 whole entry, looked up): as the sequence (P40337 whole entry partner) above
Target sequence in this assay (Q9H3R0 whole entry, looked up): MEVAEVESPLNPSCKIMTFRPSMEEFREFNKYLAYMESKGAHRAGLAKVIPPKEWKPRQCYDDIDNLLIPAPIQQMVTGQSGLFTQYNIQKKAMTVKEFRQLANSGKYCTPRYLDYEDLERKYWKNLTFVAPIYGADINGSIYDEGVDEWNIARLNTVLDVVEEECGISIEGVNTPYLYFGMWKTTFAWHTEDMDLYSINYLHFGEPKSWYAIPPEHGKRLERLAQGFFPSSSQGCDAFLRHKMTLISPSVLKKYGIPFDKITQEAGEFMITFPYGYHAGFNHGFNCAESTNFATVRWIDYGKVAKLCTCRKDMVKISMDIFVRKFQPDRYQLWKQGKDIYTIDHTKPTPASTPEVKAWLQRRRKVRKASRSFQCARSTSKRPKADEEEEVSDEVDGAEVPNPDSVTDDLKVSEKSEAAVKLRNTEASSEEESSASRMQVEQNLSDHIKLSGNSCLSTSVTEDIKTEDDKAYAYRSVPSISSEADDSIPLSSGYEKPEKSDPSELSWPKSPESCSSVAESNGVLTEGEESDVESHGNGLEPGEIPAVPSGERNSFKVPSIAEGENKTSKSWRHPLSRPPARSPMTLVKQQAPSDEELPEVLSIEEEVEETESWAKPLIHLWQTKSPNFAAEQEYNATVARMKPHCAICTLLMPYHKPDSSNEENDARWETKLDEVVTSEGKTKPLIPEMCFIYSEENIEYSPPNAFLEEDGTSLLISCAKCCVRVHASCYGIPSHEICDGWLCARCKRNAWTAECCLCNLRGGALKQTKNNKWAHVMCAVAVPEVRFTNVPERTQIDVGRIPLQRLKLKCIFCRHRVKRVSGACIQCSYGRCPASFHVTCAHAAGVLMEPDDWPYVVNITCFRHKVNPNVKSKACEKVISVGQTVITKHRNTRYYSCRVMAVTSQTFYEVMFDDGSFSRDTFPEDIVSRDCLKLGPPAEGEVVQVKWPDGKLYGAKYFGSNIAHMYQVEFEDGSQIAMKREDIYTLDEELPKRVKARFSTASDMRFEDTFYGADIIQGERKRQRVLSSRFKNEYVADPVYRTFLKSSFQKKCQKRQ

[11] = Induction of apoptosis in human KYSE-150 cells assessed as late apoptotic cells at 37 nM incubated for 72 hrs by Annexin V-PE/7-AAD staining based flow cytometry (reference value: 5.98 %); format: functional
[12] = Induction of apoptosis in human KYSE-150 cells assessed as early apoptotic cells at 111.1 nM incubated for 72 hrs by Annexin V-PE/7-AAD staining based flow cytometry (reference value: 5.27 %); format: functional
[13] = target: T3, von Hippel-Lindau disease tumor suppressor/Lysine-specific demethylase 4B (Homo sapiens, UniProt P40337+O94953); test: PROTAC activity at VHL/KDM4B in human KYSE-150 cells assessed as induction of KDM4B degradation upto 1000 nM measured after 24 hrs by Western blot analysis relative to control; format: cell-based; settings: KYSE-150 cell line
Target sequence in this assay (O94953 whole entry, looked up): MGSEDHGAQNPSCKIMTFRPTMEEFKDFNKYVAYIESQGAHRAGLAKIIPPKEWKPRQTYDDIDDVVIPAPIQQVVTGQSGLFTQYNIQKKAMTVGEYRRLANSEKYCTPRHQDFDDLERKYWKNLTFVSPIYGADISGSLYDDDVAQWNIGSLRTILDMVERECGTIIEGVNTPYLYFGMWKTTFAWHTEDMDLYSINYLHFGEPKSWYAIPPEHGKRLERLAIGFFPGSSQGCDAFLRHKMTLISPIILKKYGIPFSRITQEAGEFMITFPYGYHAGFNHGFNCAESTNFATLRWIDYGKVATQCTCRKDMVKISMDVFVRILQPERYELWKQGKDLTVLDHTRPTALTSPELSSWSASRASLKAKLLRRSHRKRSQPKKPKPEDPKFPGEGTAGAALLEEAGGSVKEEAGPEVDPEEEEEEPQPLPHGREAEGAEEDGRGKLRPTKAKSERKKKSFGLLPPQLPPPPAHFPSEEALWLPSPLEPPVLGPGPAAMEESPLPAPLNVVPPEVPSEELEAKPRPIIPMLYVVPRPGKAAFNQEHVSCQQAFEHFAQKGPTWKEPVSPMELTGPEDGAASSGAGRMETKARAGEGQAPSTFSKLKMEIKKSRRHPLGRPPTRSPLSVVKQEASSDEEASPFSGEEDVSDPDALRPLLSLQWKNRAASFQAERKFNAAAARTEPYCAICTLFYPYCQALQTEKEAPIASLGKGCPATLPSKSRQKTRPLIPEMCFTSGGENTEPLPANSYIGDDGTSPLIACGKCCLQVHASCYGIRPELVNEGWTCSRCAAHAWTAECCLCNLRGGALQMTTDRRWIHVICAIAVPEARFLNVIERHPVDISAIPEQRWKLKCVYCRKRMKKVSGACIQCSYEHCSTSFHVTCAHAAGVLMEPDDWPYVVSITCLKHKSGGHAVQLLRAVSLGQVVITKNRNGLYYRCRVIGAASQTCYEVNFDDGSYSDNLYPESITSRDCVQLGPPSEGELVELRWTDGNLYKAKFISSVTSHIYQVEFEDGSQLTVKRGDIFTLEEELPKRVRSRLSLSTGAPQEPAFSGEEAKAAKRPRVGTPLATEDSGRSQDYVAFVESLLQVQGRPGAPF
Target sequence in this assay (P40337 whole entry, looked up): as the sequence (P40337 whole entry partner) above

[14] = target: T3, von Hippel-Lindau disease tumor suppressor/Lysine-specific demethylase 4B; test: PROTAC activity at VHL/KDM4B in human KYSE-150 cells assessed as induction of KDM4B degradation measured after 24 hrs by Western blot analysis; format: cell-based
[15] = Induction of apoptosis in human KYSE-150 cells assessed as viable cells at 37 nM incubated for 72 hrs by Annexin V-PE/7-AAD staining based flow cytometry (reference value: 84.47 %); format: functional; settings: read-out: Activity
[16] = target: T2, von Hippel-Lindau disease tumor suppressor/Lysine-specific demethylase 4A; test: PROTAC activity at VHL/KDM4A in human KYSE-150 cells assessed as induction of KDM4A degradation at 500 nM measured for 8 to 36 hrs by Western blot analysis; format: cell-based; settings: KYSE-150 cell line, time 8-36 hrs
Target sequence in this assay (O75164 2-1064 limits assumed): as the sequence (O75164 2-1064 limits assumed) above
Target sequence in this assay (P40337 whole entry partner): as the sequence (P40337 whole entry partner) above

[17] = Induction of cell cycle arrest in human KYSE-150 cells assessed as accumulation of cells at S pahse at 111.1 nM incubated for 24 hrs by flow cytometry (reference value: 13.15 %); format: functional
[18] = Induction of cell cycle arrest in human KYSE-150 cells assessed as accumulation of cells at G0/G1 phase at 333.3 nM incubated for 24 hrs by flow cytometry (reference value: 65.08 %); format: functional
[19] = Induction of apoptosis in human KYSE-150 cells assessed as early apoptotic cells at 1000 nM incubated for 72 hrs by Annexin V-PE/7-AAD staining based flow cytometry (reference value: 5.27 %); format: functional
[20] = target: T2, von Hippel-Lindau disease tumor suppressor/Lysine-specific demethylase 4A; test: PROTAC activity at VHL/KDM4A in human KYSE-150 cells assessed as increase in H3K36me3 level incubated for 24 hrs by Western blot analysis; format: cell-based; settings: KYSE-150 cell line, dose <= 1000.0 nM
Target sequence in this assay (O75164 2-1064 limits assumed): as the sequence (O75164 2-1064 limits assumed) above
Target sequence in this assay (P40337 whole entry partner): as the sequence (P40337 whole entry partner) above

[21] = Induction of apoptosis in human KYSE-150 cells assessed as early apoptotic cells at 12.3 nM incubated for 72 hrs by Annexin V-PE/7-AAD staining based flow cytometry (reference value: 5.27 %); format: functional
[22] = Induction of apoptosis in human KYSE-150 cells assessed as necrotic cells at 333.3 nM incubated for 72 hrs by Annexin V-PE/7-AAD staining based flow cytometry (reference value: 4.28 %); format: functional
[23] = target: T2, von Hippel-Lindau disease tumor suppressor/Lysine-specific demethylase 4A; test: PROTAC activity at VHL/KDM4A in human KYSE-150 cells assessed as induction of KDM4A degradation at 50 nM incubated for 24 hrs in presence of Ac-VHL-Me by Western blot analysis; format: cell-based; settings: KYSE-150 cell line
Target sequence in this assay (O75164 2-1064 limits assumed): as the sequence (O75164 2-1064 limits assumed) above
Target sequence in this assay (P40337 whole entry partner): as the sequence (P40337 whole entry partner) above

[24] = Induction of cell cycle arrest in human KYSE-150 cells assessed as accumulation of cells at S pahse at 1000 nM incubated for 24 hrs by flow cytometry (reference value: 13.15 %); format: functional

For Cc1ncsc1-c1ccc([C@H](C)NC(=O)[C@@H]2C[C@@H](O)CN2C(=O)[C@@H](NC(=O)CCCCCCCCCOc2ccc(N(C)c3ccc4c(c3)OCC[C@H]4CNc3cnccc3C(=O)O)cc2)C(C)(C)C)cc1, the Activity [1] was 14.06%, the Activity ([2]; KYSE-150 cell line) was “Dose-dependent-effect” and the DC50 ([2]; kyse-150 cell line) was 49.4 nM. The Activity [3] was 44.9%, the Activity [4] was 74.74% and the Activity [5] was “inactive”. The Activity ([6]; KYSE-150 cell line) was “Dose-dependent-effect”, the DC50 ([6]; kyse-150 cell line) was 37.5 nM and the Activity [7] was 13.29%. The FC [8] was 2, the Activity [9] was 26.6% and the Emax [10] was 77.8%. The Activity [11] was 43.51%, the Activity [12] was 22.13% and the Emax [13] was 73.1%. For the same compound, the Activity ([14]; KYSE-150 cell line) was “Dose-dependent-effect”, the DC50 ([14]; kyse-150 cell line) was 39.9 nM and the viability at 0.037 µM [15] was 30.6%. The Activity [16] was “Active”, the Activity [17] was 14.35% and the Activity [18] was 72.82%. For the same compound, the Activity [19] was 29.18%, the Activity [20] was “Active” and the Activity [21] was 10.63%. The Activity [22] was 4.83%, the Activity [23] was “inactive” and the Activity [24] was 13.1%.
